# Experimental data: ChEMBL document CHEMBL1141231, “Discovery and development of a new class of potent, selective, orally active oxytocin receptor antagonists” (J Med Chem, 2005)
# Legend:
# [1] = target: T1, Oxytocin receptor (Homo sapiens, UniProt P30559); assay: biochemical; format: cell-based, HEK293-EBNA
# T1 sequence (P30559 whole entry): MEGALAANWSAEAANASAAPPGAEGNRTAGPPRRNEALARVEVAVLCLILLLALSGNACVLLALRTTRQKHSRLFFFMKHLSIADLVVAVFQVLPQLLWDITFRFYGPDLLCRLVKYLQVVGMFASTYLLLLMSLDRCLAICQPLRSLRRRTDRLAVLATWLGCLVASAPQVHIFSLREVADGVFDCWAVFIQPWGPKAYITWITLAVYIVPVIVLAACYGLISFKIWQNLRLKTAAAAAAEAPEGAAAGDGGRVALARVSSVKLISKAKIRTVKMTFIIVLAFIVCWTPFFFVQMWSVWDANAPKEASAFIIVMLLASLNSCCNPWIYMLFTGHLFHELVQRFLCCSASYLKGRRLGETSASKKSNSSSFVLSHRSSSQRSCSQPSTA
# Description: Displacement of [125I]OVTA antagonist from human oxytocin receptor expressed in HEK293-EBNA cells
# [2] = target: T2, Vasopressin V1a receptor (Homo sapiens, UniProt P37288); assay: Displacement of [125I]LVA antagonist from human vasopressin 1a receptor expressed in HEK293-EBNA cells; format: cell-based
# Target sequence in this assay (P37288 whole entry): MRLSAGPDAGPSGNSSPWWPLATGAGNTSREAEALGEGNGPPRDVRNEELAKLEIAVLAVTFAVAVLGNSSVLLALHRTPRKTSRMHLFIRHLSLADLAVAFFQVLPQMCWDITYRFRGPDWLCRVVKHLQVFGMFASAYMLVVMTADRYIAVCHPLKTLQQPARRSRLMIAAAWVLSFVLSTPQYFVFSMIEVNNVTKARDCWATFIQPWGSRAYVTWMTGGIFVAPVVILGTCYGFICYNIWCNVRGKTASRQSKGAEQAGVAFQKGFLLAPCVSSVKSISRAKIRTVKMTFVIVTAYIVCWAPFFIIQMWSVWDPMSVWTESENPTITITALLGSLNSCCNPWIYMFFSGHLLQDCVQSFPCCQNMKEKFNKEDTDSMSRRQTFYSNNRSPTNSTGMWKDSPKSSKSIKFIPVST
# [3] = Solubility in saline; format: physicochemical
# [4] = Solubility in aqueous medium; format: physicochemical
# [5] = organism: Homo sapiens; assay: Selectivity for human vasopressin V1a receptor over human oxytocin receptor
# [6] = target: T2, Vasopressin V1a receptor; conditions: HEK293-EBNA, at 10 µM
# Target sequence in this assay (P37288 whole entry, looked up): as the sequence (P37288 whole entry) above
# Description: Displacement of [125I]LVA antagonist from human vasopressin 1a receptor expressed in HEK293-EBNA cells at 10 uM
# [7] = aqueous medium, read-out: Solubility
Ki [1],Ki [2],Ratio Ki [5],Compound,also measured
237 nM,> 10000 nM,,C/C(=N\NC(=O)CN(c1ccccc1)S(=O)(=O)c1ccccc1)c1ccccc1O,
60 nM,3210 nM,54,CCOc1ccc(S(=O)(=O)N(CC(=O)N/N=C/c2ccccc2O)c2ccc(C)cc2)cc1,
> 10000 nM,> 10000 nM,,CCOc1ccc(S(=O)(=O)N(CC(=O)N/N=C/c2ccccc2N)c2ccc(C)cc2)cc1,
100 nM,300 nM,,COc1ccc(N(CC(=O)Nc2cccc(Cl)c2C)S(=O)(=O)c2ccccc2)cc1,
510 nM,1600 nM,,CCOc1ccc(S(=O)(=O)N(CC(=O)N2Cc3ccccc3CC2CC(N)=O)c2ccc(OC)cc2)cc1 (stereo not drawn),Ratio ki [5]: 3.1
160 nM,115 nM,,COc1ccc(N(CC(=O)N2CCc3ccccc3C2)S(=O)(=O)c2ccccc2)cc1,
> 10000 nM,> 10000 nM,,CCOc1ccc(N(CC(=O)Nc2cccc(Cl)c2C)S(=O)(=O)c2ccccc2)cc1,
67 nM,,,Cc1ccc(N(CC(=O)N/N=C/c2ccccc2O)S(=O)(=O)c2ccccc2)cc1,inhibition [6]: < 50%
239 nM,> 10000 nM,> 42,Cc1ccc(N(CC(=O)/N=N/c2c(O)[nH]c3ccccc23)S(=O)(=O)c2ccc3ccccc3c2)cc1,
67 nM,,,O=C(CN(c1ccc(Cl)cc1)S(=O)(=O)c1ccccc1)N/N=C/c1ccccc1O,inhibition [6]: < 50%
,1800 nM,3.6,CCOc1ccc(S(=O)(=O)N(CC(=O)N2Cc3ccccc3CC2CC(N)=O)c2ccc(C)cc2)cc1 (stereo not drawn),
93 nM,> 10000 nM,,Cc1ccc(N(CC(=O)Nc2cccc(Cl)c2C)S(=O)(=O)c2ccccc2)cc1,
800 nM,70 nM,,COc1ccc(N(CC(=O)Nc2ccc(Cl)cc2C)S(=O)(=O)c2ccccc2)cc1,
90 nM,,,O=C(CN(c1ccccc1)S(=O)(=O)c1ccccc1)N/N=C1\C(=O)Nc2ccccc21,inhibition [6]: < 50%
320 nM,570 nM,,CCOc1ccc(S(=O)(=O)N(CC(=O)N2Cc3ccccc3CC2C(N)=O)c2ccc(OC)cc2)cc1 (stereo not drawn),Ratio ki [5]: 1.8
8.7 nM,611 nM,70,O=C(CN(c1ccc(Cl)cc1)S(=O)(=O)c1ccccc1)N/N=C1\C(=O)Nc2ccccc21,
,325 nM,,Cc1ccc(N(CC(=O)N2CCc3ccccc3C2)S(=O)(=O)c2ccccc2)cc1,
104 nM,> 10000 nM,> 96,Cc1ccc(N(CC(=O)/N=N/c2c(O)[nH]c3ccccc23)S(=O)(=O)c2ccc(-c3ccccc3)cc2)cc1,
160 nM,> 10000 nM,,Cc1c(Cl)cccc1NC(=O)CN(c1ccc(Cl)cc1)S(=O)(=O)c1ccccc1,

# Second part, the molecule before the results:
Compound,Ki [1],Ki [2],Ratio Ki [5],also measured
CCOc1ccc(S(=O)(=O)N(CC(=O)/N=N/c2c(O)[nH]c3ccc(I)cc23)c2ccccc2)cc1,> 10000 nM,> 10000 nM,,
CNCCCC12CCC(c3ccccc31)c1ccccc12.Cl [MAPROTILINE HYDROCHLORIDE],,,,solubility [3]: 2 µg/mL; solubility ([4]; buffer): 580 µg/mL
CN(C)CCCOc1ccc(S(=O)(=O)N(CC(=O)/N=N/c2c(O)[nH]c3c(C(=O)O)cccc23)c2ccc(Cl)cc2)cc1,> 10000 nM,> 10000 nM,,
CCOc1ccc(S(=O)(=O)N(CC(=O)N/N=C(\C)c2ccc(O)cc2O)c2ccc(C)cc2)cc1,> 10000 nM,> 10000 nM,,
COc1ccc(S(=O)(=O)N(CC(=O)N/N=C2/C(=O)Nc3ccccc32)c2ccc(C)cc2)cc1,20 nM,437 nM,,
CCOc1ccc(S(=O)(=O)N(CC(=O)N/N=C/c2ccccn2)c2ccc(Cl)cc2)cc1,2750 nM,1860 nM,0.67,
CCOc1ccc(S(=O)(=O)N(c2ccc(C)cc2)C(CO)C(=O)N/N=C2\C(=O)Nc3ccccc32)cc1 (stereo not drawn),1380 nM,> 10000 nM,,
CCCCOc1ccc(S(=O)(=O)N(CC(=O)N/N=C2\C(=O)Nc3ccccc32)c2ccc(Cl)cc2)cc1,18 nM,3980 nM,230,
COc1ccc(-c2ccc(S(=O)(=O)N(CC(=O)/N=N/c3c(O)[nH]c4ccccc34)c3ccc(C)cc3)cc2)cc1,> 214 nM,> 10000 nM,> 47,
COC(=O)c1cccc2c1NC(=O)/C2=N\NC(=O)CN(c1ccc(Cl)cc1)S(=O)(=O)c1ccc(OCCCN(C)C)cc1,,1290 nM,12,
CCOc1ccc(S(=O)(=O)N(CCC(=O)/N=N/c2c(O)[nH]c3ccccc23)c2ccc(C)cc2)cc1,> 10000 nM,> 10000 nM,,
CN(C)CCCNC(=O)CCc1ccc(S(=O)(=O)N(CC(=O)/N=N/c2c(O)[nH]c3ccccc23)c2ccc(Cl)cc2)cc1.O=C(O)C(F)(F)F,,,,"solubility [3]: < 1 µg/mL; solubility [4, 7]: 20000 µg/mL"
CC(C)(C)c1ccc(S(=O)(=O)N(CC(=O)N/N=C2/C(=O)Nc3ccccc32)c2ccc(Cl)cc2)cc1,61 nM,4940 nM,80,
CCOc1ccc(S(=O)(=O)N(CC(=O)/N=N/c2c(O)[nH]c3ccc([N+](=O)[O-])cc23)c2ccccc2)cc1,> 10000 nM,> 10000 nM,,
Cc1ccc(N(CC(=O)N/N=C2\C(=O)Nc3ccccc32)S(=O)(=O)c2ccc(C#N)cc2)cc1,111 nM,6880 nM,62,
CN(C)CCCNC(=O)CCc1ccc(S(=O)(=O)N(CC(=O)/N=N/c2c(O)[nH]c3ccccc23)c2ccc(Cl)cc2)cc1.O=C(O)/C=C/C(=O)O,,,,"solubility [3]: 10000 µg/mL; solubility [4, 7]: 20000 µg/mL"
CCOc1ccc(S(=O)(=O)N(CC(=O)N2Cc3ccccc3C2C(N)=O)c2ccc(OC)cc2)cc1 (stereo not drawn),770 nM,1600 nM,2.1,
CCOc1ccc(S(=O)(=O)N(CC(=O)N/N=C/c2ccc(N(CC)CC)cc2O)c2ccc(C)cc2)cc1,> 10000 nM,> 10000 nM,,
CCOc1ccc(S(=O)(=O)N(CC(=O)N/N=C(\C)c2ccc3ccccc3c2O)c2ccc(C)cc2)cc1,> 10000 nM,> 10000 nM,,
COc1ccc(S(=O)(=O)N(CC(=O)N/N=C2\C(=O)Nc3ccccc32)c2ccc(C)cc2)cc1,,,22,
O=C(CN(c1ccc(Cl)cc1)S(=O)(=O)c1cccs1)N/N=C1\C(=O)Nc2ccccc21,37 nM,510 nM,14,

Compound,Ki [1],Ki [2],Ratio Ki [5],also measured
C/C(=N\NC(=O)CN(c1cccc(Cl)c1)S(=O)(=O)c1ccccc1)c1ccccc1O,4900 nM,600 nM,,
CN(C)CCCOc1ccc(S(=O)(=O)N(CC(=O)/N=N/c2c(O)[nH]c3ccncc23)c2ccc(Cl)cc2)cc1.O=C(O)C(F)(F)F,,,,"solubility [3]: 10000 µg/mL; solubility [4, 7]: 20000 µg/mL"
CN(C)CCCOc1ccc(S(=O)(=O)N(CC(=O)N/N=C2\C(=O)N(CC(N)=O)c3ccccc32)c2ccc(Cl)cc2)cc1,322 nM,1100 nM,3,
Cc1ccc(N(CC(=O)N/N=C2\C(=O)Nc3ccccc32)S(=O)(=O)c2cccc3ccccc23)cc1,,,> 58,
CN(C)CCCOc1ccc(S(=O)(=O)N(CC(=O)/N=N/c2c(O)[nH]c3ccccc23)c2ccc(Cl)cc2)cc1.Cl,,,,"solubility [3]: 7 µg/mL; solubility [4, 7]: 180 µg/mL"
CCOc1ccc(S(=O)(=O)N(CC(=O)N/N=C/c2ccccc2O)c2ccc(Cl)cc2)cc1,15 nM,650 nM,43,
CCOc1ccc(S(=O)(=O)N(CC(=O)N/N=C/c2ccccc2NC(C)=O)c2ccc(C)cc2)cc1,> 10000 nM,> 10000 nM,,
Cc1ccc(N(CC(=O)NN=C2C(=O)Nc3ccccc32)S(=O)(=O)c2cccc3ccccc23)cc1,174 nM,> 10000 nM,,
CCOc1ccc(S(=O)(=O)N(CC(=O)/N=N/c2c(O)[nH]c3ccccc23)c2ccccc2)cc1,36 nM,> 10000 nM,> 275,
CCOc1ccc(S(=O)(=O)N(CC(=O)N/N=C2\C(=O)Nc3ccccc32)c2ccc(Cl)cc2)cc1,3.9 nM,471 nM,120,
CCOc1ccc(S(=O)(=O)N(CC(=O)/N=N/c2c(O)[nH]c3ccc(S(=O)(=O)O)cc23)c2ccc(C)cc2)cc1,> 10000 nM,> 10000 nM,,
COc1ccc(S(=O)(=O)N(CC(=O)/N=N/c2c(O)[nH]c3ccccc23)c2ccc(Cl)cc2)cc1OC,18 nM,596 nM,33,
CCC(C)(C)c1ccc(S(=O)(=O)N(CC(=O)N/N=C2\C(=O)Nc3ccccc32)c2ccc(Cl)cc2)cc1,1750 nM,> 10000 nM,,
COc1ccc(S(=O)(=O)N(CC(=O)Nc2cccc(Cl)c2C)c2ccc(C)cc2)cc1OC,620 nM,,,inhibition [6]: < 50%
CCOc1ccc(S(=O)(=O)N(CC(=O)N/N=C/c2ncc[nH]2)c2ccc(Cl)cc2)cc1,> 10000 nM,> 10000 nM,,
CCOc1ccc(S(=O)(=O)N(c2ccc(C)cc2)C(C)C(=O)N/N=C2\C(=O)Nc3ccccc32)cc1 (stereo not drawn),448 nM,> 10000 nM,,
CCCc1ccc(S(=O)(=O)N(CC(=O)N/N=C2\C(=O)Nc3ccccc32)c2ccc(Cl)cc2)cc1,36 nM,2120 nM,60,
CCCOc1ccc(S(=O)(=O)N(CC(=O)N/N=C2\C(=O)Nc3ccccc32)c2ccc(C)cc2)cc1,21 nM,3730 nM,175,
CCOc1ccc(S(=O)(=O)N(CC(=O)N/N=C(\C)c2c(O)ccc3ccccc23)c2ccc(C)cc2)cc1,> 10000 nM,> 10000 nM,,
CCCOc1ccc(S(=O)(=O)N(CC(=O)N/N=C2\C(=O)Nc3ccccc32)c2ccc(Cl)cc2)cc1,10 nM,1390 nM,140,
